Measurements reported in the NIST ThermoML archive (doi:10.1021/acs.jced.8b01247).
Numbers after ± are expanded uncertainties.

Assays:
[1] = Boiling temperature at pressure P; conditions: Liquid, Ebulliometric method (Recirculating still)
[2] = 337.83 K; Liquid; Ebulliometric method (Recirculating still)

Boiling temperature at pressure P ([1]; 101.3 kPa) [°C]	Boiling temperature at pressure P ([1]; 166.8 kPa) [°C]	Boiling temperature at pressure P ([1]; 217.3 kPa) [°C]	Boiling temperature at pressure P ([1]; 257 kPa) [°C]	Boiling temperature at pressure P ([1]; 313.1 kPa) [°C]	Boiling temperature at pressure P ([1]; 387.5 kPa) [°C]	vapor or sublimation pressure [2] [kPa]	SMILES
109.7 ± 0.87	129.1 ± 1.3	139.94 ± 1.2	146.93 ± 1.2	155.67 ± 1.3	165.49 ± 1.5		CCC(C)OCOC (configuration not stated) [2-(methoxymethoxy)butane]
						101.3 ± 2.3	CO [methanol]
